Laboratory results: patent US20250353855A1, “HETEROCYCLIC AND HETEROARYL COMPOUNDS FOR TREATING HUNTINGTON'S DISEASE” (PTC THERAPEUTICS, INC., priority 2022, published 2025)

System: Endogenous Huntingtin Protein
Assay: Endogenous Huntingtin Protein Assay (ELISA-based MSD electrochemiluminescence)
Format: cell-based
Settings: MSD plates coated with MW1 (expanded polyglutamine) or MAB2166 capture antibody; lysates
Description: Compounds of Formula (T) were tested using the Meso Scale Discovery (MSD) Assay provided in International Application No. PCT/US2016/066042, filed on Dec. 11, 2016 and claiming priority to U.S. Provisional Application 62/265,652 filed on Dec. 10, 2015, the entire contents of which are incorporated herein by reference.
The Endogenous Huntingtin Protein assay used in Example 1 was developed using the ELISA-based MSD electrochemiluminescence assay platform.
Meso Scale Discovery (MSD) 96-well or 384-well plates were coated overnight at 4° C. with MW1 (expanded polyglutamine) or MAB2166 monoclonal antibody (for capture) at a concentration of 1 μg/mL in PBS (30 μL per well). Plates were then washed three times with 300 μL wash buffer (0.05% Tween-20 in PBS) and blocked (100 μL blocking buffer; 5% BSA in PBS) for 4-5 hours at room temperature with rotational shaking and then washed three times with wash buffer.
Samples (25 μL) were transferred to the antibody-coated MSD plate and incubated overnight at 4° C. After removal of the lysates, the plate was washed three times with wash buffer, and 25 μL of #5656S (Cell signaling; rabbit monoclonal) secondary antibody (diluted to 0.25 μg/mL in 0.05% Tween-20 in blocking buffer) was added to each well and incubated with shaking for 1 Hour at room temperature. Following incubation with the secondary antibody, the wells were rinsed with wash buffer after which 25 μL of goat anti-rabbit SULFO TAG secondary detection antibody (required aspect of the MSD system) (diluted to 0.25 μg/mL in 0.05% Tween-20 in blocking buffer) was added to each well and incubated with shaking for 1 hour at room temperature. After rinsing three times with wash buffer, 150 μL of read buffer T with surfactant (MSD) were added to each empty well, and the plate was imaged on a SI 6000 imager (MSD) according to manufacturers' instructions provided for 96- or 384-well plates.

Structure (SMILES)	IC50 [nM]
Cc1ncc2cc(-c3cc4ccn([C@H]5CC(C)(C)NC(C)(C)[C@H]5F)c4nn3)c(O)cc2n1 [Cpd 15, 6-{7-[(3S,4S)-3-fluoro-2,2,6,6-tetramethylpiperidin-4-yl]-7H-pyrrolo[2,3-c]pyridazin-3-yl}-2-methylquinazolin-7-ol]	< 100
Cc1nc2cc(O)c(-c3cc4ccn([C@@H]5CCNC(C)(C)[C@@H]5F)c4nn3)cc2s1 [Cpd 19, 6-{7-[(3R,4R)-3-fluoro-2,2-dimethylpiperidin-4-yl]-7H-pyrrolo[2,3-c]pyridazin-3-yl}-2-methyl-1,3-benzothiazol-5-ol]	< 100
Cc1nc2cc(O)c(-c3cc4ccn([C@@H]5CCNC(C)(C)[C@@H]5F)c4nn3)cc2o1 [Cpd 20, 6-{7-[(3R,4R)-3-fluoro-2,2-dimethylpiperidin-4-yl]-7H-pyrrolo[2,3-c]pyridazin-3-yl}-2-methyl-1,3-benzoxazol-5-ol]	< 100
COc1nc2cc(O)c(-c3cc4ccn([C@H]5CC(C)(C)NC(C)(C)[C@H]5F)c4nn3)cc2o1 [Cpd 25, 6-{7-[(3S,4S)-3-fluoro-2,2,6,6-tetramethylpiperidin-4-yl]-7H-pyrrolo[2,3-c]pyridazin-3-yl}-2-methoxy-1,3-benzoxazol-5-ol]	< 100
COc1cnc2cc(-c3cc4ccn([C@H]5CC(C)(C)NC(C)(C)[C@H]5F)c4nn3)c(O)cc2n1 [Cpd 33, 7-{7-[(3S,4S)-3-fluoro-2,2,6,6-tetramethylpiperidin-4-yl]-7H-pyrrolo[2,3-c]pyridazin-3-yl}-3-methoxyquinoxalin-6-ol]	< 100

Same assay, conditions: MSD plates coated with MW1 (expanded polyglutamine) or MAB2166 capture antibody; lysates; read-out: IC50

Structure (SMILES)	IC50 [nM]
CC1(C)C[C@H](n2ccc3cc(-c4cc5c(Cl)ccnc5cc4O)nnc32)[C@H](F)C(C)(C)N1 [Cpd 21, 4-chloro-6-{7-[(3S,4S)-3-fluoro-2,2,6,6-tetramethylpiperidin-4-yl]-7H-pyrrolo[2,3-c]pyridazin-3-yl}quinolin-7-ol]	100 to 500
Cc1nc2cc(-c3cc4ncn([C@H]5CC(C)(C)NC6(CC6)C5)c4nn3)c(O)cc2o1 [Cpd 23, 5-{7-[(7S)-5,5-dimethyl-4-azaspiro[2.5]octan-7-yl]-7H-imidazo[4,5-c]pyridazin-3-yl}-2-methyl-1,3-benzoxazol-6-ol]	100 to 500
CC1(C)C[C@H](n2ccc3cc(-c4cc5nc(C(F)(F)F)oc5cc4O)nnc32)[C@H](F)C(C)(C)N1 [Cpd 24, 5-{7-[(3S,4S)-3-fluoro-2,2,6,6-tetramethylpiperidin-4-yl]-7H-pyrrolo[2,3-c]pyridazin-3-yl}-2-(trifluoromethyl)-1,3-benzoxazol-6-ol]	100 to 500
CC1(C)C[C@H](n2ccc3cc(-c4cc5ccncc5cc4O)nnc32)[C@H](F)C(C)(C)N1 [Cpd 29, 6-{7-[(3S,4S)-3-fluoro-2,2,6,6-tetramethylpiperidin-4-yl]-7H-pyrrolo[2,3-c]pyridazin-3-yl}isoquinolin-7-ol]	< 100
Cc1cnc2cc(-c3cc4ccn([C@H]5CC(C)(C)NC(C)(C)[C@H]5F)c4nn3)c(O)cc2c1 [Cpd 30, 7-{7-[(3S,4S)-3-fluoro-2,2,6,6-tetramethylpiperidin-4-yl]-7H-pyrrolo[2,3-c]pyridazin-3-yl}-3-methylquinolin-6-ol]	< 100
Cc1ccc2cc(O)c(-c3cc4ccn([C@H]5CC(C)(C)NC(C)(C)[C@H]5F)c4nn3)cc2n1 [Cpd 31, 7-{7-[(3S,4S)-3-fluoro-2,2,6,6-tetramethylpiperidin-4-yl]-7H-pyrrolo[2,3-c]pyridazin-3-yl}-2-methylquinolin-6-ol]	< 100
Cc1ccc2cc(-c3cc4ccn([C@H]5CC(C)(C)NC(C)(C)[C@H]5F)c4nn3)c(O)cc2n1 [Cpd 32, 6-{7-[(3S,4S)-3-fluoro-2,2,6,6-tetramethylpiperidin-4-yl]-7H-pyrrolo[2,3-c]pyridazin-3-yl}-2-methylquinolin-7-ol]	< 100
Cc1cnc2cc(O)c(-c3cc4ccn([C@H]5CC(C)(C)NC(C)(C)[C@H]5F)c4nn3)cc2c1 [Cpd 35, 6-{7-[(3S,4S)-3-fluoro-2,2,6,6-tetramethylpiperidin-4-yl]-7H-pyrrolo[2,3-c]pyridazin-3-yl}-3-methylquinolin-7-ol]	< 100

Other lines, results leading:

IC50 [nM]	Structure (SMILES)
< 100	Cc1nc2cc(O)c(-c3cc4ccn([C@H]5CC(C)(C)NC(C)(C)[C@H]5F)c4nn3)cc2o1 [Cpd 3, 6-{7-[(3S,4S)-3-fluoro-2,2,6,6-tetramethylpiperidin-4-yl]-7H-pyrrolo[2,3-c]pyridazin-3-yl}-2-methyl-1,3-benzoxazol-5-ol]
< 100	Cc1nc2cc(O)c(-c3cc4ccn([C@H]5CC(C)(C)NC(C)(C)[C@H]5F)c4nn3)cc2s1 [Cpd 4, 6-{7-[(3S,4S)-3-fluoro-2,2,6,6-tetramethylpiperidin-4-yl]-7H-pyrrolo[2,3-c]pyridazin-3-yl}-2-methyl-1,3-benzothiazol-5-ol]
< 100	Cc1cnc2cc(-c3cc4ccn([C@H]5CC(C)(C)NC(C)(C)[C@H]5F)c4nn3)c(O)cc2n1 [Cpd 5, 7-{7-[(3S,4S)-3-fluoro-2,2,6,6-tetramethylpiperidin-4-yl]-7H-pyrrolo[2,3-c]pyridazin-3-yl}-3-methylquinoxalin-6-ol]
< 100	Cc1nc2cc(-c3cc4ccn([C@H]5CC(C)(C)NC(C)(C)[C@H]5F)c4nn3)c(O)cc2o1 [Cpd 6, 5-{7-[(3S,4S)-3-fluoro-2,2,6,6-tetramethylpiperidin-4-yl]-7H-pyrrolo[2,3-c]pyridazin-3-yl}-2-methyl-1,3-benzoxazol-6-ol]
< 100	Cc1nc2cc(-c3cc4ccn([C@H]5CC(C)(C)NC(C)(C)[C@H]5F)c4nn3)c(O)cc2s1 [Cpd 8, 5-{7-[(3S,4S)-3-fluoro-2,2,6,6-tetramethylpiperidin-4-yl]-7H-pyrrolo[2,3-c]pyridazin-3-yl}-2-methyl-1,3-benzothiazol-6-ol]
< 100	Cc1nc2cc(O)c(-c3cc4ncn([C@H]5CC(C)(C)NC6(CC6)C5)c4nn3)cc2s1 [Cpd 11, 6-{7-[(7S)-5,5-dimethyl-4-azaspiro[2.5]octan-7-yl]-7H-imidazo[4,5-c]pyridazin-3-yl}-2-methyl-1,3-benzothiazol-5-ol]
< 100	Cc1nc2cc(O)c(-c3cc4nnn(C5CC(C)(C)NC6(CC6)C5)c4nn3)cc2s1 (stereo not shown) [Cpd 12, 6-[3-(5,5-dimethyl-4-azaspiro[2.5]octan-7-yl)-3H-[1,2,3]triazolo[4,5-c]pyridazin-6-yl]-2-methyl-1,3-benzothiazol-5-ol]
< 100	CCc1nc2cc(-c3cc4ccn([C@H]5CC(C)(C)NC(C)(C)[C@H]5F)c4nn3)c(O)cc2o1 [Cpd 13, 2-ethyl-5-{7-[(3S,4S)-3-fluoro-2,2,6,6-tetramethylpiperidin-4-yl]-7H-pyrrolo[2,3-c]pyridazin-3-yl}-1,3-benzoxazol-6-ol]
< 100	CCc1nc2cc(-c3cc4ccn([C@H]5CC(C)(C)NC(C)(C)[C@H]5F)c4nn3)c(O)cc2s1 [Cpd 14, 2-ethyl-5-{7-[(3S,4S)-3-fluoro-2,2,6,6-tetramethylpiperidin-4-yl]-7H-pyrrolo[2,3-c]pyridazin-3-yl}-1,3-benzothiazol-6-ol]
< 100	CC1(C)C[C@H](n2ccc3cc(-c4cc5cccnc5cc4O)nnc32)[C@H](F)C(C)(C)N1 [Cpd 16, 6-{7-[(3S,4S)-3-fluoro-2,2,6,6-tetramethylpiperidin-4-yl]-7H-pyrrolo[2,3-c]pyridazin-3-yl}quinolin-7-ol]
< 100	CC1(C)C[C@H](n2ccc3cc(-c4cc5ncccc5cc4O)nnc32)[C@H](F)C(C)(C)N1 [Cpd 17, 7-{7-[(3S,4S)-3-fluoro-2,2,6,6-tetramethylpiperidin-4-yl]-7H-pyrrolo[2,3-c]pyridazin-3-yl}quinolin-6-ol]
< 100	Cn1ccc(=O)c2cc(-c3cc4ccn([C@H]5CC(C)(C)NC(C)(C)[C@H]5F)c4nn3)c(O)cc21 [Cpd 18, 6-{7-[(3S,4S)-3-fluoro-2,2,6,6-tetramethylpiperidin-4-yl]-7H-pyrrolo[2,3-c]pyridazin-3-yl}-7-hydroxy-1-methylquinolin-4(1H)-one]
< 100	Cn1c(=O)cnc2cc(-c3cc4ccn([C@H]5CC(C)(C)NC(C)(C)[C@H]5F)c4nn3)c(O)cc21 [Cpd 26, 6-{7-[(3S,4S)-3-fluoro-2,2,6,6-tetramethylpiperidin-4-yl]-7H-pyrrolo[2,3-c]pyridazin-3-yl}-7-hydroxy-1-methylquinoxalin-2(1H)-one]
< 100	Cc1nc2cc(O)c(-c3cc4nnn(C5CC(C)(C)NC(C)(C)C5)c4nn3)cc2s1 [Cpd 27, 2-methyl-6-[3-(2,2,6,6-tetramethylpiperidin-4-yl)-3H-[1,2,3]triazolo[4,5-c]pyridazin-6-yl]-1,3-benzothiazol-5-ol]
< 100	CC1(C)C[C@H](n2ccc3cc(-c4cc5ccccc5cc4O)nnc32)[C@H](F)C(C)(C)N1 [Cpd 28, 3-{7-[(3S,4S)-3-fluoro-2,2,6,6-tetramethylpiperidin-4-yl]-7H-pyrrolo[2,3-c]pyridazin-3-yl}naphthalen-2-ol]
